# Experimental data taken from patent publication US4642341A, “Carbapenem antibiotics” (priority 1985, dated 1987).
# Where two headings read alike, the source gives them in different places.
# What was measured:
# [1] = system: S. marcescens A20019; experiment: Minimum Inhibitory Concentration, tube dilution; type: cell-based; details: Serratia marcescens, A20019, overnight 37° C.; table 6
# [2] = system: E. coli A15119; experiment: Minimum Inhibitory Concentration, tube dilution; type: cell-based; details: Escherichia coli, A15119, overnight 37° C.; table 6
# [3] = system: E. cloacae A-9656; experiment: Minimum Inhibitory Concentration, tube dilution; type: cell-based; details: Enterobacter cloacae, A9656; overnight 37° C.; table 6
# [4] = system: B. fragilis A22862; experiment: Minimum Inhibitory Concentration, tube dilution; type: cell-based; details: Bacteroides fragilis, overnight 37° C., table 6
# [5] = system: P. aeruginosa A9843A; experiment: animal or person; type: in vivo, mice; details: Pseudomonas aeruginosa, in Mus musculus, im, read-out: PD50 /treatment
# Description: The PD50 (dose in mg/kg required to give protection to 50% of the infected mice) is indicated.
# [6] = system: P. aeruginosa A21213; experiment: Minimum Inhibitory Concentration, tube dilution; type: cell-based; details: Pseudomonas aeruginosa, A21213, overnight 37° C.; table 6; read-out: MIC
# [7] = system: P. aeruginosa A-9843A; experiment: Minimum Inhibitory Concentration, tube dilution; type: cell-based; details: Pseudomonas aeruginosa, A9843A, overnight 37° C.; table 6; read-out: MIC
# [8] = system: E. coli A20341-1; experiment: Minimum Inhibitory Concentration, tube dilution; type: cell-based; details: Escherichia coli, A203411, overnight 37° C.; table 6
# [9] = system: B. fragilis A22696; experiment: Minimum Inhibitory Concentration, tube dilution; type: cell-based; details: Bacteroides fragilis
# [10] = system: M. morganii A15153; experiment: Minimum Inhibitory Concentration, tube dilution; type: cell-based; details: Morganella morganii, A15153, overnight 37° C.; table 6
# [11] = system: K. pneumoniae A-9664; experiment: Minimum Inhibitory Concentration, tube dilution; type: cell-based; details: Klebsiella pneumoniae, A9664, overnight 37° C.; table 6
# [12] = system: P. rettgeri A22424; experiment: Minimum Inhibitory Concentration, tube dilution; type: cell-based; details: Providencia rettgeri, overnight 37° C.
# [13] = system: S. aureus A-9537; experiment: Minimum Inhibitory Concentration, tube dilution; type: cell-based; details: Staphylococcus aureus, table 6, read-out: MIC
# [14] = system: S. pneumoniae A-9585; experiment: Minimum Inhibitory Concentration, tube dilution; type: cell-based; details: Streptococcus pneumoniae, A9585, overnight 37° C.; table 6
# [15] = system: S. faecalis A20688; experiment: Minimum Inhibitory Concentration, tube dilution; type: cell-based; details: Enterococcus faecalis
# [16] = system: P. mirabilis A-9900; experiment: Minimum Inhibitory Concentration, tube dilution; type: cell-based; details: Proteus mirabilis, A9900, overnight 37° C.; table 6
# [17] = system: P. vulgaris A21559; experiment: Minimum Inhibitory Concentration, tube dilution; type: cell-based; details: Proteus vulgaris, A21559, overnight 37° C.; table 6
# [18] = system: S. pyogenes A-9604; experiment: Minimum Inhibitory Concentration, tube dilution; type: cell-based; details: Streptococcus pyogenes, A9604, overnight 37° C.; table 6
# [19] = system: E. cloacae A9659; experiment: Minimum Inhibitory Concentration, tube dilution; type: cell-based; details: Enterobacter cloacae, A9659, overnight 37° C., table 6
# [20] = system: S. aureus A-9606 (Pen-res.); experiment: Minimum Inhibitory Concentration, tube dilution; type: cell-based; details: Staphylococcus aureus, Pen-res; table 6
# [21] = Half-life in phosphate buffer pH 7.4; type: physicochemical; details: phosphate buffer; for half-life at 100 µM: pH 7.4, τ1/2 (half-life)
# Description: To a solution of p-nitrobenzyl 3-[2-(1-pyridinium)ethylthio)]-6α[1-(R)-hydroxyethyl]-7-oxo-1-azabicyclo(3.2.0)hept-2-ene-carboxylate diphenylphosphate (0.16 g, 0.22 mmol) in wet tetrahydrofuran (10mL) was added ether (10mL), potassium phosphate monobasic-sodium hydroxide buffer pH 7.4 (16 mL, 0.05 M) and 10% palladium on charcoal (0.16 g). The resulting mixture was hydrogenated under 40 psi for 1 h at 25° C. The two phases were separated and the organic phase was extracted with water (2×3 mL). The aqeuous solutions were combined, washed with ether (2×10 ml) and poured on top of a column (1.5×6.2 cm) pf μ-bondapak C-18 after the traces of organic solvents have been removed under vacuum. Elution of the column with water gave after lyophylization of the appropriate fractions a yellowish powder 0.062 g (84%), ir (KBr) .nu.max : 3700-3000 (OH), 1755 (C--O of β-lactam), 1630 (pyridinium), 1590 cm^-1 (carboxylate), ^1 Hmr (D2 O): 1.22 (3H, d, J=6.4 Hz, CH3 CHOH), 2.92 (d, J=9.1 Hz, H-4), 2.97 (d, J=9.1 Hz, H-4), 3.20 (dd, J=2.5 Hz, J=6.1 Hz, H-6), 3.44 (t, J=6.0 Hz, CH2 S), 3.93 (dd, J=9.1 Hz, J=2.5 Hz, H-5), 4.82 (t, J=6.0 Hz, CH2 N^+), 8.04 (m, Hm of pyridinium), 8.5 (m, Hp of pyridinium), 8.82 (dd, J=3.2. Hz, J=1.1 Hz, Ho of pyridinium), uv (H2 O) λ max : 259 (ε5800), 296 (ε7030) mμ, .tau.1/2 =13.5 h (measured at a concentration of 10^-4 M in phosphate buffer pH 7.4 at 36.8° C.).
# [22] = system: H. influenzae A21518; experiment: Minimum Inhibitory Concentration, tube dilution; type: cell-based; details: Haemophilus influenzae, overnight 37° C., table 6
# [23] = system: H. influenzae A-9833; experiment: Minimum Inhibitory Concentration, tube dilution; type: cell-based; details: Haemophilus influenzae, A9833; overnight 37° C.; table 6; read-out: MIC
# [24] = system: P. mirabilis A9900; experiment: Protective effect, intramuscular treatment of infected mice (table 7); type: in vivo; details: Proteus mirabilis, A9900, im; i.m. 1 and 3.5 hours post-infection; ~1×10^7 organisms i.p.; read-out: PD50 /treatment
# Description: (§1) Drugs were administered i.m. 0 to 2 hours post-infection (A9606) or 1 and 3.5 hours post-infection for the others.
# [25] = system: S. aureus A9606; experiment: as above; type: in vivo; details: Staphylococcus aureus, A9606, im; i.m. 0 to 2 hours post-infection; ~1×10^9 organisms i.p.; read-out: PD50 /treatment
# Description: as §1
# [26] = system: P. aeruginosa A20481; experiment: as above; type: in vivo; details: Pseudomonas aeruginosa, A20481, im; i.m. 1 and 3.5 hours post-infection; ~1×10^5 organisms i.p.; read-out: PD50 /treatment
# Description: as §1
# [27] = system: S. aureus A15097 (Meth-res.); experiment: Minimum Inhibitory Concentration, tube dilution; type: cell-based; details: Staphylococcus aureus, table 6
# [28] = system: P. aeruginosa A9843A; experiment: animal or person; type: in vivo, mice; details: Pseudomonas aeruginosa, in Mus musculus, im, 3.5 h, read-out: PD50 /treatment
# Description: as §1
# [29] = Pharmacokinetic parameters in the mouse after intramuscular dose; type: in vivo, mice; details: im, 20 mg/kg
# Description: Also shown is the urinary recovery in the mice.
# Compounds were solubilized in 0.1 M phosphate buffer pH 7.
# [30] = system: K. pneumoniae A20468; experiment: Minimum Inhibitory Concentration, tube dilution; type: cell-based; details: Klebsiella pneumoniae, A20468, overnight 37° C.; table 6
# [31] = overnight 37° C., table 6, read-out: MIC
# [32] = A20688, overnight 37° C., table 6, read-out: MIC
SMILES,MIC [1] [µg/mL],MIC [2] [µg/mL],MIC [3] [µg/mL],MIC [4] [µg/mL],ED50 [5] [mg/kg],MIC [6] [µg/mL],MIC [7] [µg/mL],MIC [8] [µg/mL],"MIC [9, 31] [µg/mL]",MIC [10] [µg/mL],"MIC ([12]; table 6, read-out: MIC) [µg/mL]","MIC ([13]; A9537, 50% serum) [µg/mL]","MIC ([13]; A9537, overnight 37° C.) [µg/mL]",MIC [14] [µg/mL],"MIC [15, 32] [µg/mL]",MIC [16] [µg/mL],MIC [17] [µg/mL],MIC [18] [µg/mL],MIC [20] [µg/mL],MIC [27] [µg/mL],other results
"C[C@@H](O)[C@H]1C(=O)N2C(C(=O)[O-])=C(SC3CCCCC3[n+]3ccccc3)C[C@H]12 (single isomer, unassigned) [Ex. 16 (cmp. ""A""), (5R,6S) 3-[2-[(R or S)-(1-pyridinium)]-1-(R or S)-cyclohexylthio]-6-[1-(R)-hydroxyethyl]-7-oxo-1-azabicyclo(3.2.0)hept-2-ene-2-carboxylate]",0.13,0.06,0.5,–,–,–,–,–,–,–,–,–,–,–,–,–,–,–,–,–,–
Cc1cccc(C)[n+]1CCSC1=C(C(=O)[O-])N2C(=O)[C@H]([C@@H](C)O)[C@H]2C1 [Example 12],0.06,–,0.5,0.06,> 25,16,> 32,0.016,0.25,0.06,0.5,0.03,0.008,0.002,0.25,0.06,0.03,0.002,0.016,–,MIC [11]: 0.06 µg/mL; MIC ([19]; read-out: MIC): 0.25 µg/mL
"C[C@@H](O)[C@H]1C(=O)N2C(C(=O)[O-])=C(SCC[n+]3cccc(CO)c3)C[C@H]12 [Example 5, (5R,6S)-3-[[2-(3-hydroxymethylpyridino)ethyl]thio]-6-[(R)-1-hydroxyethyl]-7-oxo-1-azabicyclo[3.2.0]hept-2-ene-2-carboxylate]",–,0.06,–,0.06,–,–,2,0.06,0.5,–,–,0.06,0.03,0.03,0.5,–,0.06,0.03,0.03,> 63,"half-life ([21]; pH 7.4, t1/2 (half-life)): 14 h; MIC [22]: > 32 µg/mL; MIC [23]: > 32 µg/mL; ED50 [24]: 22 mg/kg; ED50 [25]: 0.5 mg/kg; ED50 [26]: 0.8 mg/kg; ED50 [28]: 0.9 mg/kg"
"CC(C[n+]1ccccc1)SC1=C(C(=O)[O-])N2C(=O)[C@H]([C@@H](C)O)[C@H]2C1 (single isomer, unassigned) [Ex. 15 (cmp. ""B"")]",–,–,0.06,–,–,–,–,–,–,–,0.06,–,–,–,–,–,–,–,–,0.03,half-life at 100 µM [21]: 12.6 h
"Cc1cccc[n+]1CCSC1=C(C(=O)[O-])N2C(=O)[C@H]([C@@H](C)O)[C@H]2C1 [Example 7, 3-[2-(1-(2-methylpyridinium))ethylthio]-6α-[1-(R)-hydroxyethyl]-7-oxo-1-azabicyclo(3.2.0)hept-2-ene-carboxylate]",0.03,0.03,–,0.06,–,1,4,0.03,–,0.03,–,0.03,0.03,0.03,–,0.03,0.03,0.03,0.03,> 63,"half-life at 100 µM [21]: 15 h; MIC [22]: > 32 µg/mL; MIC [23]: > 32 µg/mL; MIC [9]: 0.5 µg/mL; ED50 [24]: ~22 mg/kg; ED50 [25]: 0.6 mg/kg; ED50 [26]: 1.4 mg/kg; MIC ([15]; A20688): 0.5 µg/mL; MIC ([19]; read-out: MIC): 0.06 µg/mL; AUC ([29]; blood): 7000 ng·h/mL; Cmax ([29]; blood): 15000 ng/mL; half-life ([29]; blood, read-out: T1/2 (blood)): 0.183 h; dose excreted ([29]; urine, read-out: Urine Recovery): 49 ± 9%; ED50 [28]: 0.9 mg/kg"
"CSc1cc[n+](CCSC2=C(C(=O)[O-])N3C(=O)[C@H]([C@@H](C)O)[C@H]3C2)cc1 [Example 9, (5R) 3-[2-(4-methylthiopyridinio)ethylthio]-(6S)-[(1R)-hydroxyethyl]-7-oxo-1-azabicyclo[3.2.0]hept-2-ene-2-carboxylate]",0.06,0.03,–,0.06,3.1,2,4,0.03,–,–,–,0.016,0.008,0.002,–,0.06,0.016,0.001,0.008,–,"MIC ([12]; table 6): 0.25 µg/mL; MIC ([15]; A20688, overnight 37° C., table 6): 0.25 µg/mL; MIC [30]: 0.25 µg/mL; MIC [19]: 0.25 µg/mL"
